Measured values reported in PubChem BioAssay AID248 (DTP/NCI, 2004).
Values joined by “and” are separate entries in the source; they are usually repeats but may differ in a detail not shown here. Identical values can stand only once. Inconclusive results and toxic doses are left out.

System: L1210 leukemia ip in BDF1 mice, survival T/C
Assay: NCI In Vivo Anticancer Drug Screen. Data for tumor model L1210 Leukemia (intraperitoneal) in B6D2F1 (BDF1) mice
Conditions: higher = longer survival
In short: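 Transplanted-tumor mice were given test agent; controls received vehicle only. Survival readings from the two groups were divided (treated over control).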

CN(N=O)C(N)=O
T/C (endpoint: mean survival time, dose: 0.35 mg/kg/injection, schedule: Q01DX Z (sc), vehicle: steriod suspending solution): 103 % of control
T/C (endpoint: mean survival time, dose: 0.55 mg/kg/injection, schedule: Q01DX Z (sc), vehicle: steriod suspending solution): 97 % of control
T/C (endpoint: mean survival time, dose: 0.83 mg/kg/injection, schedule: Q01DX Z (sc), vehicle: steriod suspending solution): 100 % of control
T/C (endpoint: mean survival time, dose: 0.92 mg/kg/injection, schedule: Q01DX Z (oral), vehicle: steriod suspending solution): 98 % of control
T/C (endpoint: mean survival time, dose: 1.25 mg/kg/injection, schedule: Q01DX Z (sc), vehicle: steriod suspending solution): 103 % of control
T/C (endpoint: mean survival time, dose: 1.38 mg/kg/injection, schedule: Q01DX Z (oral), vehicle: steriod suspending solution): 106 % of control
T/C (endpoint: mean survival time, dose: 2.08 mg/kg/injection, schedule: Q01DX Z (oral), vehicle: steriod suspending solution): 107 % of control
T/C (endpoint: mean survival time, dose: 2.25 mg/kg/injection, schedule: Q01DX Z (ip), vehicle: carboxymethylcellulose (CMC)): 112 % of control
T/C (endpoint: mean survival time, dose: 2.5 mg/kg/injection, schedule: Q01DX Z (sc), vehicle: steriod suspending solution): 156 % of control
T/C (endpoint: mean survival time, dose: 3.12 mg/kg/injection, schedule: Q01DX Z (oral), vehicle: steriod suspending solution): 114 % of control
T/C (endpoint: mean survival time, dose: 3.6 mg/kg/injection, schedule: Q01DX Z (ip), vehicle: carboxymethylcellulose (CMC)): 109 % of control
T/C (endpoint: mean survival time, dose: 4.5 mg/kg/injection, schedule: Q01DX Z (ip), vehicle: carboxymethylcellulose (CMC)): 109 % of control and 120 % of control
T/C (endpoint: mean survival time, dose: 5.0 mg/kg/injection, schedule: Q01DX009 (ip), vehicle: saline): 118 % of control and 123 % of control
T/C (endpoint: mean survival time, dose: 5.0 mg/kg/injection, schedule: Q01DX Z (sc), vehicle: steriod suspending solution): 160 % of control
T/C (endpoint: mean survival time, dose: 5.7 mg/kg/injection, schedule: Q02DX010 (ip), vehicle: carboxymethylcellulose (CMC)): 121 % of control
T/C (endpoint: mean survival time, dose: 6.0 mg/kg/injection, schedule: Q01DX Z (ip), vehicle: carboxymethylcellulose (CMC)): 119 % of control
T/C (endpoint: mean survival time, dose: 6.2 mg/kg/injection, schedule: Q01DX Z (sc), vehicle: saline): 106 % of control and 113 % of control
T/C (endpoint: mean survival time, dose: 6.25 mg/kg/injection, schedule: Q01DX Z (oral), vehicle: steriod suspending solution): 101 % of control
T/C (endpoint: mean survival time, dose: 6.8 mg/kg/injection, schedule: Q02DX010 (ip), vehicle: saline): 122 % of control
T/C (endpoint: mean survival time, dose: 8.0 mg/kg/injection, schedule: Q01DX Z (ip), vehicle: saline): 162 % of control
T/C (endpoint: mean survival time, dose: 8.0 mg/kg/injection, schedule: Q01DX Z (sc), vehicle: other): 122 % of control
T/C (endpoint: mean survival time, dose: 8.0 mg/kg/injection, schedule: Q01DX Z (sc), vehicle: saline): 115 % of control
T/C (endpoint: mean survival time, dose: 9.0 mg/kg/injection, schedule: Q01DX Z (sc), vehicle: saline): 103 % of control
T/C (endpoint: mean survival time, dose: 9.0 mg/kg/injection, schedule: Q02DX010 (ip), vehicle: carboxymethylcellulose (CMC)): 122 % of control
T/C (endpoint: mean survival time, dose: 10.0 mg/kg/injection, schedule: Q01DX Z (sc), vehicle: steriod suspending solution): 156 % of control
T/C (endpoint: mean survival time, dose: 12.0 mg/kg/injection, schedule: Q01DX Z (ip), vehicle: saline): 184 % of control
T/C (endpoint: mean survival time, dose: 12.5 mg/kg/injection, schedule: Q01DX Z (oral), vehicle: steriod suspending solution): 157 % of control
T/C (endpoint: mean survival time, dose: 13.0 mg/kg/injection, schedule: Q02DX010 (ip), vehicle: saline): 154 % of control
T/C (endpoint: mean survival time, dose: 18.0 mg/kg/injection, schedule: Q01DX001 (ip), vehicle: saline): 124 % of control
T/C (endpoint: mean survival time, dose: 18.0 mg/kg/injection, schedule: Q01DX Z (ip), vehicle: carboxymethylcellulose (CMC)): 177 % of control
T/C (endpoint: mean survival time, dose: 18.0 mg/kg/injection, schedule: Q01DX Z (ip), vehicle: saline): 187 % of control
T/C (endpoint: mean survival time, dose: 18.0 mg/kg/injection, schedule: Q01DX Z (sc), vehicle: other): 188 % of control
T/C (endpoint: mean survival time, dose: 20.0 mg/kg/injection, schedule: Q01DX009 (ip), vehicle: saline): 158 % of control and 174 % of control
T/C (endpoint: mean survival time, dose: 20.0 mg/kg/injection, schedule: Q02DX010 (ip), vehicle: other): 159 % of control
T/C (endpoint: mean survival time, dose: 20.0 mg/kg/injection, schedule: Q02DX010 (ip), vehicle: saline): 160 % of control and 166 % of control
T/C (endpoint: mean survival time, dose: 22.5 mg/kg/injection, schedule: Q02DX010 (ip), vehicle: saline): 152 % of control
T/C (endpoint: mean survival time, dose: 24.0 mg/kg/injection, schedule: Q02DX010 (ip), vehicle: saline): 167 % of control
T/C (endpoint: mean survival time, dose: 24.8 mg/kg/injection, schedule: Q01DX Z (oral), vehicle: saline): 112 % of control
T/C (endpoint: mean survival time, dose: 27.0 mg/kg/injection, schedule: Q01DX Z (ip), vehicle: saline): 115 % of control
T/C (endpoint: mean survival time, dose: 30.0 mg/kg/injection, schedule: Q02DX010 (ip), vehicle: other): 208 % of control
T/C (endpoint: mean survival time, dose: 30.0 mg/kg/injection, schedule: Q02DX010 (ip), vehicle: saline): 154 % of control and 177 % of control
T/C (endpoint: mean survival time, dose: 36.0 mg/kg/injection, schedule: Q01DX Z (ip), vehicle: carboxymethylcellulose (CMC)): 122 % of control
T/C (endpoint: mean survival time, dose: 36.0 mg/kg/injection, schedule: Q02DX010 (ip), vehicle: saline): 211 % of control
T/C (endpoint: mean survival time, dose: 40.0 mg/kg/injection, schedule: Q01DX009 (ip), vehicle: saline): 118 % of control and 88 % of control
T/C (endpoint: mean survival time, dose: 40.0 mg/kg/injection, schedule: Q01DX Z (ip), vehicle: saline): 103 % of control
T/C (endpoint: mean survival time, dose: 45.0 mg/kg/injection, schedule: Q01DX Z (ip), vehicle: carboxymethylcellulose (CMC)): 94 % of control
T/C (endpoint: mean survival time, dose: 45.0 mg/kg/injection, schedule: Q02DX010 (ip), vehicle: saline): 108 % of control
T/C (endpoint: mean survival time, dose: 56.0 mg/kg/injection, schedule: Q01DX Z (oral), vehicle: saline): 113 % of control and 114 % of control
T/C (endpoint: mean survival time, dose: 67.0 mg/kg/injection, schedule: Q02DX010 (ip), vehicle: other): 101 % of control
T/C (endpoint: mean survival time, dose: 67.0 mg/kg/injection, schedule: Q02DX010 (ip), vehicle: saline): 74 % of control
T/C (endpoint: mean survival time, dose: 72.0 mg/kg/injection, schedule: Q01DX001 (ip), vehicle: saline): 188 % of control
T/C (endpoint: mean survival time, dose: 80.0 mg/kg/injection, schedule: Q01DX Z (sc), vehicle: steriod suspending solution): 101 % of control
T/C (endpoint: mean survival time, dose: 84.0 mg/kg/injection, schedule: Q01DX Z (oral), vehicle: saline): 101 % of control
T/C (endpoint: mean survival time, dose: 160.0 mg/kg/injection, schedule: Q01DX Z (sc), vehicle: steriod suspending solution): 88 % of control
T/C (endpoint: median survival time, dose: 0.75 mg/kg/injection, schedule: Q01DX009 (ip), vehicle: saline): 95 % of control
T/C (endpoint: median survival time, dose: 1.5 mg/kg/injection, schedule: Q01DX009 (ip), vehicle: saline): 100 % of control and 110 % of control
T/C (endpoint: median survival time, dose: 3.0 mg/kg/injection, schedule: Q01DX009 (ip), vehicle: saline): 100 % of control and 115 % of control
T/C (endpoint: median survival time, dose: 5.0 mg/kg/injection, schedule: Q01DX009 (ip), vehicle: saline): 121 % of control
T/C (endpoint: median survival time, dose: 6.3 mg/kg/injection, schedule: Q01DX017 (ip), vehicle: saline): 122 % of control
T/C (endpoint: median survival time, dose: 10.0 mg/kg/injection, schedule: Q01DX009 (ip), vehicle: saline): 155 % of control
T/C (endpoint: median survival time, dose: 12.0 mg/kg/injection, schedule: Q01DX009 (ip), vehicle: saline): 172 % of control
T/C (endpoint: median survival time, dose: 12.5 mg/kg/injection, schedule: Q01DX017 (ip), vehicle: saline): 183 % of control and 194 % of control
T/C (endpoint: median survival time, dose: 20.0 mg/kg/injection, schedule: Q01DX009 (ip), vehicle: saline): 233 % of control and 242 % of control
T/C (endpoint: median survival time, dose: 24.0 mg/kg/injection, schedule: Q01DX009 (ip), vehicle: saline): 190 % of control
T/C (endpoint: median survival time, dose: 40.0 mg/kg/injection, schedule: Q01DX009 (ip), vehicle: saline): 100 % of control and 121 % of control

[O-][n+]1c2ccc(Cl)cc2nc2ccc(Cl)cc21
T/C (endpoint: mean survival time, dose: 25.0 mg/kg/injection, schedule: Q04DX003 (ip), vehicle: Klucel (hydroxypropylcellulose) (HPC)): 95 % of control
T/C (endpoint: mean survival time, dose: 50.0 mg/kg/injection, schedule: Q04DX003 (ip), vehicle: Klucel (hydroxypropylcellulose) (HPC)): 93 % of control
T/C (endpoint: mean survival time, dose: 100.0 mg/kg/injection, schedule: Q04DX003 (ip), vehicle: Klucel (hydroxypropylcellulose) (HPC)): 92 % of control and 88 % of control

O=C(O)c1cc([N+](=O)[O-])cs1
T/C (endpoint: mean survival time, dose: 100.0 mg/kg/injection, schedule: Q01DX001 (ip), vehicle: saline): 98 % of control
T/C (endpoint: mean survival time, dose: 200.0 mg/kg/injection, schedule: Q01DX001 (ip), vehicle: saline): 104 % of control

COC(=O)c1cc(OC)c(OC)c(OC)c1
T/C (endpoint: mean survival time, dose: 100.0 mg/kg/injection, schedule: Q01DX001 (ip), vehicle: saline with Tween-80): 100 % of control
T/C (endpoint: mean survival time, dose: 200.0 mg/kg/injection, schedule: Q01DX001 (ip), vehicle: saline with Tween-80): 98 % of control
T/C (endpoint: mean survival time, dose: 400.0 mg/kg/injection, schedule: Q01DX001 (ip), vehicle: saline with Tween-80): 96 % of control

CCOC(=O)COc1ccc(Cl)cc1C(=O)OCC
T/C (endpoint: mean survival time, dose: 100.0 mg/kg/injection, schedule: Q04DX002 (sc), vehicle: olive oil, sesame oil, peanut oil): 105 % of control
T/C (endpoint: mean survival time, dose: 200.0 mg/kg/injection, schedule: Q04DX002 (sc), vehicle: olive oil, sesame oil, peanut oil): 118 % of control
T/C (endpoint: mean survival time, dose: 400.0 mg/kg/injection, schedule: Q04DX002 (sc), vehicle: olive oil, sesame oil, peanut oil): 111 % of control
